Measurements taken from patent US10035760B2, “Inhibitors of human immunodeficiency virus replication” (priority 2013, dated 2018).

Each compound was assayed on recombinant NL4-3 virus (Renilla luciferase) in MT-2 cells (assay: HIV cell culture assay (antiviral activity, luciferase readout in infected MT-2 cells)). Settings: Renilla, NL43, read-out: Activity, antiviral activity class, recombinant NL4-3 Renilla luciferase virus in MT-2 cells.
Type: cell-based
Procedure, shortened: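 EC50 derived via median-effect equation from luciferase activity in MT-2 cells after 4–5 day infection, compound serially diluted. Virus: recombinant NL4-3 with Renilla luciferase replacing part of nef, made in 293T cells.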
In the case of CN(C(=O)[C@H](Cc1ccccc1)NC(=O)NS(=O)(=O)c1ccccc1-c1ccoc1)c1ccc2c(c1)OCO2 [Example 50, (S)—N-(benzo[d][1,3]dioxol-5-yl)-2-(3-((2-(furan-3-yl)phenyl)sulfonyl)ureido)-N-methyl-3-phenylpropanamide], the EC50 is reported as 100 to 1000 nM.
With COc1ccc(N(C)C(=O)[C@H](Cc2ccccc2)NC(=O)NS(=O)(=O)c2ccccc2C)cc1 [Example 167, (S)—N-(4-methoxyphenyl)-N-methyl-3-phenyl-2-(3-(o-tolylsulfonyl)ureido)propanamide] the EC50 was < 100 nM.
CCN(C(=O)[C@H](Cc1ccccc1)NC(=O)NS(=O)(=O)c1ccccc1C)c1ccc(OC)c(C)c1 [Example CA-78, (S)—N-ethyl-N-(4-methoxy-3-methylphenyl)-3-phenyl-2-(3-(o-tolylsulfonyl)ureido)propanamide] was tested, and the EC50 was 100 to 1000 nM.
With C=Cc1cccc(S(=O)(=O)NC(=O)N[C@@H](Cc2ccccc2)C(=O)N(CC)c2ccc(OC)cc2)c1 [Example 138, (S)—N-ethyl-N-(4-methoxyphenyl)-3-phenyl-2-(3-((3-vinylphenyl)sulfonyl)ureido)propanamide] the EC50 was < 100 nM.
Compound Cc1ccccc1S(=O)(=O)NC(=O)N[C@@H](Cc1cc(F)cc(F)c1)C(=O)N(C)c1cccc(Cl)c1 [Example CA-111, (S)—N-(3-chlorophenyl)-3-(3,5-difluorophenyl)-N-methyl-2-(3-(o-tolylsulfonyl)ureido)propanamide] has an EC50 of 1000 to 10000 nM.
C/C=C\c1ccccc1S(=O)(=O)NC(=O)N[C@@H](Cc1ccccc1)C(=O)N(C)c1ccc2c(c1)OCO2 [Example 137, (S,Z)—N-(benzo[d][1,3]dioxol-5-yl)-N-methyl-3-phenyl-2-(3-((2-(prop-1-en-1-yl)phenyl)sulfonyl)ureido)propanamide] gave an EC50 of 100 to 1000 nM.
Cc1ccccc1S(=O)(=O)NC(=O)N[C@@H](Cc1ccccc1)C(=O)N1CCc2ccccc21 [Example 174, (S)—N-((1-(indolin-1-yl)-1-oxo-3-phenylpropan-2-yl)carbamoyl)-2-methylbenzenesulfonamide] gave an EC50 of 1000 to 10000 nM.
CN(C(=O)[C@H](Cc1cc(F)cc(F)c1)NC(=O)NS(=O)(=O)c1ccc(F)cc1F)c1ccc2scnc2c1 [Example ZY-17, (S)—N-(benzo[d]thiazol-5-yl)-3-(3,5-difluorophenyl)-2-(3-((2,4-difluorophenyl)sulfonyl)ureido)-N-methylpropanamide] was tested, and the EC50 was 100 to 1000 nM.
CN(C(=O)[C@H](Cc1ccccc1)NC(=O)NS(=O)(=O)c1cc(Cl)sc1Cl)c1ccc2c(c1)OCO2 [Example 32, (S)—N-(benzo[d][1,3]dioxol-5-yl)-2-(3-((2,5-dichlorothiophen-3-yl)sulfonyl)ureido)-N-methyl-3-phenylpropanamide] was tested, and the EC50 was < 100 nM.
In the case of Cc1ccccc1S(=O)(=O)NC(=O)N[C@@H](Cc1ccccc1)C(=O)N(C)c1cccc(C#N)c1 [Example CA-91, (S)—N-(3-cyanophenyl)-N-methyl-3-phenyl-2-(3-(o-tolylsulfonyl)ureido)propanamide], the EC50 is reported as 100 to 1000 nM.
Cc1ccc(S(=O)(=O)NC(=O)N[C@@H](Cc2ccccc2)C(=O)N(C)c2ccc3c(c2)OCO3)cc1 [Example 5, (S)—N-(benzo[d][1,3]dioxol-5-yl)-N-methyl-3-phenyl-2-(3-tosylureido)propanamide] gave an EC50 of 100 to 1000 nM.
For CN(C(=O)[C@H](Cc1cc(F)cc(F)c1)NC(=O)NS(=O)(=O)c1ccccc1Cl)c1ccc2scnc2c1 [Example ZY-13, (S)—N-(benzo[d]thiazol-5-yl)-2-(3-((2-chlorophenyl)sulfonyl)ureido)-3-(3,5-difluorophenyl)-N-methylpropanamide], the EC50 was < 100 nM.
Compound COc1ccc(N(C)C(=O)[C@H](Cc2cc(F)cc(F)c2)NC(=O)NS(=O)(=O)c2ccccc2F)cc1 [Example 204, (S)-3-(3,5-difluorophenyl)-2-(3-((2-fluorophenyl)sulfonyl)ureido)-N-(4-methoxyphenyl)-N-methylpropanamide] has an EC50 of 100 to 1000 nM.
In the case of CCN(C(=O)[C@H](Cc1ccccc1)NC(=O)NS(=O)(=O)c1ccccc1C)c1ccc(Cl)c(C(F)(F)F)c1 [Example 182, (S)—N-(4-chloro-3-(trifluoromethyl)phenyl)-N-ethyl-3-phenyl-2-(3-(o-tolylsulfonyl)ureido)propanamide], the EC50 is reported as 100 to 1000 nM.
CCc1ccccc1S(=O)(=O)NC(=O)N[C@@H](Cc1ccccc1)C(=O)N(C)c1ccc2c(c1)OCO2 [Example 146, (S)—N-(benzo[d][1,3]dioxol-5-yl)-2-(3-((2-ethylphenyl)sulfonyl)ureido)-N-methyl-3-phenylpropanamide] was tested, and the EC50 was < 100 nM.
In the case of Cc1ccccc1S(=O)(=O)NC(=O)N[C@@H](Cc1ccccc1)C(=O)N(C)c1ccc2ncncc2c1 [Example CA-96, (S)—N-methyl-3-phenyl-N-(quinazolin-6-yl)-2-(3-(o-tolylsulfonyl)ureido)propanamide], the EC50 is reported as 100 to 1000 nM.
In the case of CCN(C(=O)[C@H](Cc1ccccc1)NC(=O)NS(=O)(=O)c1cccc(Cl)c1Cl)c1ccc(OC)cc1 [Example 119, (S)-2-(3-((2,3-dichlorophenyl)sulfonyl)ureido)-N-ethyl-N-(4-methoxyphenyl)-3-phenylpropanamide], the EC50 is reported as < 100 nM.
With CN(C(=O)[C@H](Cc1ccccc1)NC(=O)NS(=O)(=O)C1CCCCC1)c1ccc2c(c1)OCO2 [Example 111, (S)—N-(benzo[d][1,3]dioxol-5-yl)-2-(3-(cyclohexylsulfonyl)ureido)-N-methyl-3-phenylpropanamide] the EC50 was 100 to 1000 nM.
Work on C=C(C)c1ccccc1S(=O)(=O)NC(=O)N[C@@H](Cc1ccccc1)C(=O)N(C)c1ccc2c(c1)OCO2 [Example 134, (S)—N-(benzo[d][1,3]dioxol-5-yl)-N-methyl-3-phenyl-2-(3-((2-(prop-1-en-2-yl)phenyl)sulfonyl)ureido)propanamide] yielded an EC50 of 1000 to 10000 nM.
In the case of Cc1ccccc1N(C)C(=O)[C@H](Cc1ccccc1)NC(=O)NS(=O)(=O)c1ccccc1C [Example CA-69, (S)—N-methyl-3-phenyl-N-(o-tolyl)-2-(3-(o-tolylsulfonyl)ureido)propanamide], the EC50 is reported as 1000 to 10000 nM.
In the case of CCN(C(=O)[C@H](Cc1ccccc1)NC(=O)NS(=O)(=O)c1cc(Br)ccc1C)c1ccc(OC)cc1 [Example 120, (S)-2-(3-((5-bromo-2-methylphenyl)sulfonyl)ureido)-N-ethyl-N-(4-methoxyphenyl)-3-phenylpropanamide], the EC50 is reported as 100 to 1000 nM.
For CN(C(=O)[C@H](Cc1ccccc1)NC(=O)NS(=O)(=O)Cc1ccc(C(F)(F)F)cc1)c1ccc2c(c1)OCO2 [Example 105, (S)—N-(benzo[d][1,3]dioxol-5-yl)-N-methyl-3-phenyl-2-(3-((4-(trifluoromethyl)benzyl)sulfonyl)ureido)propanamide], the EC50 was 100 to 1000 nM.
Work on COc1ccc2c(c1)CCCN2C(=O)[C@H](Cc1ccccc1)NC(=O)NS(=O)(=O)c1ccccc1C [Example 171, (S)—N-((1-(6-methoxy-3,4-dihydroquinolin-1(2H)-yl)-1-oxo-3-phenylpropan-2-yl)carbamoyl)-2-methylbenzenesulfonamide] yielded an EC50 of 100 to 1000 nM.
COc1cccc(C[C@H](NC(=O)NS(=O)(=O)c2ccccc2C)C(=O)N(C)c2ccc3c(c2)OCO3)c1 [Example 78, (S)—N-(benzo[d][1,3]dioxol-5-yl)-3-(3-methoxyphenyl)-N-methyl-2-(3-(o-tolylsulfonyl)ureido)propanamide] showed an EC50 of 100 to 1000 nM.
With CCN(C(=O)[C@H](Cc1ccccc1)NC(=O)NS(=O)(=O)c1ccccc1C)c1ccc2ncccc2c1 [Example CA-80, (S)—N-ethyl-3-phenyl-N-(quinolin-6-yl)-2-(3-(o-tolylsulfonyl)ureido)propanamide] the EC50 was < 100 nM.
In the case of CN(C(=O)[C@H](Cc1ccccc1)NC(=O)NS(=O)(=O)c1ccccc1Cl)c1ccc2c(c1)CCC2 [Example 206, (S)-2-(3-((2-chlorophenyl)sulfonyl)ureido)-N-(2,3-dihydro-1H-inden-5-yl)-N-methyl-3-phenylpropanamide], the EC50 is reported as < 100 nM.
CCN(C(=O)[C@H](Cc1ccccc1)NC(=O)NS(=O)(=O)c1cccc(-c2csc3ccccc23)c1)c1ccc(OC)cc1 [Example 153, (S)-2-(3-((3-(benzo[b]thiophen-3-yl)phenyl)sulfonyl)ureido)-N-ethyl-N-(4-methoxyphenyl)-3-phenylpropanamide] showed an EC50 of 100 to 1000 nM.
CCN(C(=O)[C@H](Cc1ccccc1)NC(=O)NS(=O)(=O)c1cccc(-c2csc3ccccc23)c1C)c1ccc(OC)cc1 [Example 161, (S)-2-(3-((3-(benzo[b]thiophen-3-yl)-2-methylphenyl)sulfonyl)ureido)-N-ethyl-N-(4-methoxyphenyl)-3-phenylpropanamide] gave an EC50 of 1000 to 10000 nM.
COc1ccc(N(C)C(=O)[C@H](CC2CCCCC2)NC(=O)NS(=O)(=O)c2ccccc2C)cc1 [Example 195, (S)-3-cyclohexyl-N-(4-methoxyphenyl)-N-methyl-2-(3-(o-tolylsulfonyl)ureido)propanamide] was tested, and the EC50 was 1000 to 10000 nM.
For CN(C(=O)[C@H](Cc1cc(F)cc(F)c1)NC(=O)NS(=O)(=O)c1ccccc1)c1ccc2c(c1)OC(F)(F)O2 [Example 41, (S)—N-(2,2-difluorobenzo[d][1,3]dioxol-5-yl)-3-(3,5-difluorophenyl)-N-methyl-2-(3-(phenylsulfonyl)ureido)propanamide], the EC50 was 100 to 1000 nM.
Compound COc1ccc(N(C)C(=O)[C@H](Cc2ccccc2)NC(=O)NS(=O)(=O)c2ccccc2)cc1 [Example 92] has an EC50 of 100 to 1000 nM.
Work on Cc1ccccc1S(=O)(=O)NC(=O)N[C@@H](Cc1ccccc1)C(=O)N(C)c1ccc(O)c(NC=O)c1 [Example CA-90, (S)—N-(3-formamido-4-hydroxyphenyl)-N-methyl-3-phenyl-2-(3-(o-tolylsulfonyl)ureido)propanamide] yielded an EC50 of 1000 to 10000 nM.

Same assay, conditions: Renilla, NL43, recombinant NL4-3 Renilla luciferase virus in MT-2 cells
CCN(C(=O)[C@H](Cc1ccccc1)NC(=O)NS(=O)(=O)c1ccccc1C)c1ccc(OC)c(C)c1 [Example CA-78, (S)—N-ethyl-N-(4-methoxy-3-methylphenyl)-3-phenyl-2-(3-(o-tolylsulfonyl)ureido)propanamide] was tested, and the EC50 was 120 nM.
Work on C=Cc1cccc(S(=O)(=O)NC(=O)N[C@@H](Cc2ccccc2)C(=O)N(CC)c2ccc(OC)cc2)c1 [Example 138, (S)—N-ethyl-N-(4-methoxyphenyl)-3-phenyl-2-(3-((3-vinylphenyl)sulfonyl)ureido)propanamide] yielded an EC50 of 50 nM.
For Cc1ccccc1S(=O)(=O)NC(=O)N[C@@H](Cc1ccccc1)C(=O)N1CCc2ccccc21 [Example 174, (S)—N-((1-(indolin-1-yl)-1-oxo-3-phenylpropan-2-yl)carbamoyl)-2-methylbenzenesulfonamide], the EC50 was 3840 nM.
With CN(C(=O)[C@H](Cc1ccccc1)NC(=O)NS(=O)(=O)c1cc(Cl)sc1Cl)c1ccc2c(c1)OCO2 [Example 32, (S)—N-(benzo[d][1,3]dioxol-5-yl)-2-(3-((2,5-dichlorothiophen-3-yl)sulfonyl)ureido)-N-methyl-3-phenylpropanamide] the EC50 was 70 nM.
Work on CN(C(=O)[C@H](Cc1cc(F)cc(F)c1)NC(=O)NS(=O)(=O)c1ccccc1Cl)c1ccc2scnc2c1 [Example ZY-13, (S)—N-(benzo[d]thiazol-5-yl)-2-(3-((2-chlorophenyl)sulfonyl)ureido)-3-(3,5-difluorophenyl)-N-methylpropanamide] yielded an EC50 of 30 nM.
In the case of CCN(C(=O)[C@H](Cc1ccccc1)NC(=O)NS(=O)(=O)c1ccccc1C)c1ccc2ncccc2c1 [Example CA-80, (S)—N-ethyl-3-phenyl-N-(quinolin-6-yl)-2-(3-(o-tolylsulfonyl)ureido)propanamide], the EC50 is reported as 30 nM.

Same assay, conditions: recombinant NL4-3 Renilla luciferase virus in MT-2 cells; read-out: EC50
With “(S)—N-((1-(3,3-dimethylazetidin-1-yl)-1-oxo-3-phenylpropan-2-yl)carbamoyl)-2-methylbenzenesulfonamide [Example 191]” the EC50 was > 100000 nM.
